From US20130129840A1, “COMBINATION THERAPY USING A RUTHENIUM COMPLEX” (Niiki Pharma Inc., priority 2010, published 2013)

Assays:
colon cancer cells = conditions: preclinical studies, Kapitza et al. 2005; cited from earlier work
cancer = conditions: cited from earlier work
[1] = tested on: Hep3B liver carcinoma xenograft; assay: Hep3B liver carcinoma xenograft assay, survival; type: in vivo, CB17 SCID mice; conditions: SCID mice, test drug 30 mg/kg i.v. day 1 and 8, sorafenib 25 mg/kg p.o. days 1-5 and 8-12, control 33 days
Procedure: Xenograft Assay: CB17 severe combined immunodeficient (SCID) female mice were used for all in vivo studies. The mice received food and water ad libitum. For tumor application, logarithmically growing Hep3B cells in cell culture were collected by trypsinization and washed once in serum-free culture medium. The cells were then pelleted and resuspended in culture medium to a final cell count of 2×10^7/ml. 50 μl of the cell suspension was injected s.c. in the right flank of each mouse. Treatment started when all animals in the study had established tumors of a size of about 3×3 mm.
Sorafenib (LC Laboratories, Woburn, Mass., USA) was dissolved in DMSO (50 mg/ml), further diluted in Cremophor EL/95% ethanol (50:50; Sigma), which was followed by a 1:4 dilution in water. 100 μl sorafenib was administered p.o. once daily at 5 consecutive days for two weeks at a dose of 25 mg/kg body weight (days 1-5 and days 8-12).
Tumor size was calculated using the equation (l×w^2)/2, where l and w refer to the larger and smaller dimensions, respectively, of the tumor. 4 mice were used in each group for each data point.

Row | Compound | inducing apoptosis in colon cancer cells (colon cancer cells) | anti-cancer activities in a phase I clinical trial (cancer) | increase in life span / mean survival vs. control [1] | mean survival [1]
1 | [Cl-].[Cl-].[Cl-].[Cl-].[Ru+3].c1ccc2[nH][nH+]cc2c1.c1ccc2[nH]ncc2c1.c1ccc2[nH]ncc2c1 [KP1019, indazolium trans-[tetrachlorobis(1H-indazole)ruthenate (III)]] | effective in inducing apoptosis | some anti-cancer activities | – | –
2 | [Cl][Ru-]([Cl])([Cl])[Cl].[Na+].c1ccc2[nH]ncc2c1.c1ccc2[nH]ncc2c1 [Test drug] | effective in inducing apoptosis | – | 2.4 fold | 80 days
3 | CNC(=O)c1cc(Oc2ccc(NC(=O)Nc3ccc(Cl)c(C(F)(F)F)c3)cc2)ccn1 [sorafenib, reference compound] | – | – | 1.9 fold | 60 days
